We go through 20 compounds from patent US7659270B2, “Hepatitis C virus inhibitors” (Bristol-Myers Squibb Company, priority 2006, dated 2010).

Molecules are shown by their SMILES. pEC50: −log10 of the molar value.

In general, pEC50 refers to the EC50 on a negative log10 scale, so that one unit is a factor of ten.

The subject of one test is HCV 1b-377-neo replicon cells. The experiment in a line: HCV replicon assay (HCV 1b-377-neo replicon cells). The class given is cell-based, Hepatitis C virus genotype 1b. To be noted: Hepatitis C virus, read-out: EC50 range against HCV 1b (Range). In short, it runs like this:
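HCV genotype 1b (1b-377-neo) replicon cells, run as a validated replicon assay; parallel testing in replicon cells carrying the NS5A Y2065H resistance mutation.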
(In general: Replicon systems follow genome replication, usually without infectious particles.)
In the case of `COC(=O)N[C@@H](C(=O)N[C@@H](C)c1ncc(-c2ccc(-c3ccc(-c4cnc([C@@H]5CCCN5C(=O)[C@H](NC(=O)OC)c5ccccc5)[nH]4)cc3)nc2)[nH]1)c1ccccc1` [Example 152j-22, methyl ((1R)-2-((2S)-2-(5-(4-(5-(2-((1S)-1-(((2R)-2-((methoxycarbonyl)a-mino)-2-phenyl-acetyl)amino)eth-yl)-1H-imidazol-5-yl)-2-pyridinyl)phenyl)-1H-imidazol-2-yl)-1-pyrrolidinyl)-2-oxo-1-phenylethyl)carbamate], the negative logarithm of the EC50 (pEC50) is 9.00 to 11.00.

As to `COC(=O)N[C@@H](C(=O)N[C@@H](C)c1ncc(-c2ccc(-c3ccc(-c4cnc([C@H](C)NC(=O)[C@H](NC(=O)OC)c5ccccc5)[nH]4)cn3)cc2)[nH]1)c1ccccc1` [Example 152j-23], the negative logarithm of the EC50 (pEC50) was 9.00 to 11.00.

In the case of `C[C@H](NC(=O)[C@@H](c1ccccc1)N(C)C)c1ncc(-c2ccc(-c3ccc(-c4cnc([C@H](C)NC(=O)[C@@H](c5ccccc5)N(C)C)[nH]4)cn3)cc2)[nH]1` [Example 152j-24, (2R)-2-(dimethylamino)-N-((1S)-1-(5-(6-(4-(2-((1S)-1-(((2R)-2-(dimethylamino)-2-phenyl-acetyl)amino)eth-yl)-1H-imidazol-5-yl)phenyl)-3-pyridinyl)-1H-imidazol-2-yl)ethyl)-2-phenylacetamide], the negative logarithm of the EC50 (pEC50) was 9.00 to 11.00.

As for `COC(=O)N[C@@H](C(=O)N[C@@H](C)c1ncc(-c2ccc(-c3cnc(-c4cnc([C@@H]5CCCN5C(=O)[C@H](NC(=O)OC)c5ccccc5)[nH]4)cn3)cc2)[nH]1)c1ccccc1` [Example 152j-28], the negative logarithm of the EC50 (pEC50) was 9.00 to 11.00.

Take `COC(=O)N[C@@H](C(=O)N(C)[C@@H](C)c1ncc(-c2ccc(-c3ncc(-c4cnc([C@@H]5CCCN5C(=O)[C@@H](c5ccccc5)N5CCCCC5)[nH]4)cn3)cc2)[nH]1)c1ccccc1` [Example 152l-1, methyl ((1R)-2-(meth-yl((1S)-1-(4-(4-(5-(2-((2S)-1-((2R)-2-phenyl-2-(1-piperi-dinyl)acetyl)-2-pyrrolidinyl)-1H-imidazol-5-yl)-2-pyrimi-dinyl)phenyl)-1H-imidazol-2-yl)eth-yl)amino)-2-oxo-1-phenyl-ethyl)carbamate]: the negative logarithm of the EC50 (pEC50) was 9.00 to 11.00.

Regarding `COC(=O)N[C@@H](C(=O)N[C@@H](C)c1ncc(-c2ccc(-c3ncc(-c4cnc([C@@H]5CCCN5C(=O)[C@@H](c5ccccc5)N5CCCCC5)[nH]4)cn3)cc2)[nH]1)c1ccccc1` [Example 152l-2, methyl ((1R)-2-oxo-1-phen-yl-2-(((1S)-1-(4-(4-(5-(2-((2S)-1-((2R)-2-phenyl-2-(1-piperi-dinyl)acetyl)-2-pyrrolidinyl)-1H-imidazol-5-yl)-2-pyrimi-dinyl)phenyl)-1H-imidazol-2-yl)eth-yl)amino)ethyl)car-bamate], the pEC50 was 9.00 to 11.00.

`COC(=O)N[C@@H](C(=O)N1CCC[C@H]1c1ncc(-c2ccc(-c3ncc(-c4cnc([C@@H]5CCCN5C(=O)[C@@H](c5ccccc5)N5CCCCC5)[nH]4)cn3)cc2)[nH]1)c1ccccc1` [Example 152l-3, methyl ((1R)-2-oxo-1-phe-nyl-2-((2S)-2-(4-(4-(5-(2-((2S)-1-((2R)-2-phenyl-2-(1-piperidinyl)acetyl)-2-pyrrolidinyl)-1H-imidazol-5-yl)-2-pyrimi-dinyl)phenyl)-1H-imidazol-2-yl)-1-pyrroli-dinyl)ethyl)carba-mate]: the negative logarithm of the EC50 (pEC50) was 9.00 to 11.00.

For the compound `CN(C)[C@@H](C(=O)N1CCC[C@H]1c1ncc(-c2ccc(-c3ccc(-c4cnc([C@@H]5CCCN5C(=O)[C@@H](c5ccccc5)N(C)C)[nH]4)nn3)nn2)[nH]1)c1ccccc1` [Example 153c-1], the negative-log EC50 (pEC50) is 7.00 to 9.00.

For `COC(=O)N[C@@H](C(=O)N1CCC[C@H]1c1ncc(-c2ccc(-c3ccc(-c4cnc([C@@H]5CCCN5C(=O)[C@H](NC(=O)OC)c5ccccc5)[nH]4)nn3)nn2)[nH]1)c1ccccc1` [Example 153c-2, dimethyl (3,3′-bipyrida-zine-6,6′-diylbis(1H-imi-dazole-5,2-diyl(2S)-2,1-pyrrolidine-diyl((1R)-2-oxo-1-phenyl-2,1-ethane-diyl)))biscarba-mate], the pEC50 was 7.00 to 9.00.

With `CN(C)[C@@H](C(=O)N1CCC[C@H]1c1ncc(-c2cnc(-c3ncc(-c4cnc([C@@H]5CCCN5C(=O)[C@@H](c5ccccc5)N(C)C)[nH]4)cn3)nc2)[nH]1)c1ccccc1` [Example 153c-3, (1R,1′R)-2,2′-(2,2′-bipyrimi-dine-5,5′-diylbis(1H-imidazole-5,2-diyl (2S)-2,1-pyrrolidine-diyl))bis(N, N-dimeth-yl-2-oxo-1-phenyl-ethanamine)], the pEC50 is 5.00 to 6.00.

`COC(=O)N[C@@H](C(=O)N1CCC[C@H]1c1ncc(-c2cnc(-c3ncc(-c4cnc([C@@H]5CCCN5C(=O)[C@H](NC(=O)OC)c5ccccc5)[nH]4)cn3)nc2)[nH]1)c1ccccc1` [Example 153c-4, dimethyl (2,2′-bipyrimi-dine-5,5′-diylbis(1H-imi-dazole-5,2-diyl (2S)-2,1-pyrrolidine-diyl((1R)-2-oxo-1-phe-nyl-2,1-ethane-diyl)))biscarba-mate]: the pEC50 is 5.00 to 6.00.

Consider `CN(C)[C@@H](C(=O)N1CCC[C@H]1c1ncc(-c2cnc(-c3cnc(-c4cnc([C@@H]5CCCN5C(=O)[C@@H](c5ccccc5)N(C)C)[nH]4)cn3)cn2)[nH]1)c1ccccc1` [Example 153c-5, (1R,1′R)-2,2′-(2,2′-bipyrazine-5,5′-diylbis(1H-imidazole-5,2-diyl (2S)-2,1-pyrrolidine-diyl))bis(N, N-dimeth-yl-2-oxo-1-phenyl-ethanamine)], for which the negative-log EC50 (pEC50) was 7.00 to 9.00.

On to `COC(=O)N[C@@H](C(=O)N1CCC[C@H]1c1ncc(-c2cnc(-c3cnc(-c4cnc([C@@H]5CCCN5C(=O)[C@H](NC(=O)OC)c5ccccc5)[nH]4)cn3)cn2)[nH]1)c1ccccc1` [Example 153c-6, dimethyl (2,2′-bipyrazine-5,5′-diylbis(1H-imi-dazole-5,2-diyl (2S)-2,1-pyrrolidine-diyl((1R)-2-oxo-1-phe-nyl-2,1-ethane-diyl)))biscarba-mate], for which the pEC50 is 7.00 to 9.00.

`COC(=O)N[C@@H](C(=O)N[C@@H](C)c1ncc(-c2ccc(-c3ccc(-c4cnc([C@H](C)NC(=O)[C@H](NC(=O)OC)c5ccccc5)[nH]4)cn3)nc2)[nH]1)c1ccccc1` [Example 153c-7, dimethyl (2,2′-bipyridine-5,5′-diylbis (1H-imidazole-5,2-diyl (1S)-1,1-ethanediyl-imino((1R)-2-oxo-1-phenyl-2,1-ethane-diyl)))biscarba-mate]: the pEC50 was 7.00 to 9.00.

Consider `COC(=O)N[C@@H](C)C(=O)N1CCC[C@H]1c1nc(-c2cnc(-c3ccc(-c4cnc([C@@H]5CCCN5C(=O)[C@H](C)NC(=O)OC)[nH]4)c(F)c3)nc2)c[nH]1` [Example D67, methyl ((1S)-2-((2S)-2-(5-(2-flouro-4-(5-(2-((2S)-1-(N-(methoxy-carbonyl)-L-alanyl)-2-pyrroli-dinyl)-1H-imida-zol-5-yl)-2-pyrimi-dinyl)phenyl)-1H-imida-zol-2-yl)-1-pyrrolidinyl)-1-methyl-2-oxoeth-yl)carbamate], for which the negative logarithm of the EC50 (pEC50) is 9.00 to 11.00.

For `COC(=O)N[C@@H](C(=O)N1CCC[C@H]1c1nc(-c2cnc(-c3ccc(-c4cnc([C@@H]5CCCN5C(=O)[C@H](NC(=O)OC)c5ccccc5)[nH]4)c(F)c3)nc2)c[nH]1)c1ccccc1` [Example D69, methyl ((1R)-2-((2S)-2-(5-(2-(3-fluoro-4-(2-((2S)-1-((2R)-2-((methoxy-carbonyl)a-mino)-2-phenyl-acetyl)-2-pyrroli-dinyl)-1H-imidazol-5-yl)phenyl)-5-pyrimi-dinyl)-1H-imida-zol-2-yl)-1-pyrrolidinyl)-2-oxo-1-phenyl-eth-yl)carbamate], the negative-log EC50 (pEC50) was 9.00 to 11.00.

With `COC(=O)N[C@H](C(=O)N1CCC[C@H]1c1nc(-c2cnc(-c3ccc(-c4cnc([C@@H]5CCCN5C(=O)[C@@H](NC(=O)OC)[C@@H](C)OC)[nH]4)c(F)c3)nc2)c[nH]1)[C@@H](C)OC` [Example D70, methyl ((1S,2R)-1-(((2S)-2-(5-(2-fluoro-4-(5-(2-((2S)-1-(N-(methoxy-carbonyl)-O-methyl-L-threonyl)-2-pyrroli-dinyl)-1H-imida-zol-5-yl)-2-pyrimidi-nyl)phenyl)-1H-imida-zol-2-yl)-1-pyrroli-dinyl)carbo-nyl)-2-methoxy-propyl)carba-mate], the negative logarithm of the EC50 (pEC50) is 9.00 to 11.00.

On to `COC(=O)N[C@@H](C)C(=O)N1CCC[C@H]1c1nc(-c2cnc(-c3ccc(-c4cnc([C@@H]5CCCN5C(=O)[C@H](C)NC(=O)OC)[nH]4)cc3)nc2)c[nH]1` [Example D73, methyl ((1S)-2-((2S)-2-(5-(4-(5-(2-((2S)-1-(N-(methoxy-carbonyl)-L-alanyl)-2-pyrroli-dinyl)-1H-imida-zol-5-yl)-2-pyrimi-dinyl)phenyl)-1H-imidazol-2-yl)-1-pyrroli-dinyl)-1-methyl-2-oxoeth-yl)carbamate], for which the negative logarithm of the EC50 (pEC50) is 9.00 to 11.00.

As for `COC(=O)N[C@H](C(=O)N1CCC[C@H]1c1nc(-c2cnc(-c3ccc(-c4cnc([C@@H]5CCCN5C(=O)[C@@H](NC(=O)OC)C(C)C)[nH]4)cc3)nc2)c[nH]1)C(C)C` [Example D74, methyl ((1S)-1-(((2S)-2-(5-(2-(4-(2-((2S)-1-((2S)-2-((methoxy-carbonyl)amino)-3-methyl-butanoyl)-2-pyrroli-dinyl)-1H-imidazol-5-yl)phenyl)-5-pyrimi-dinyl)-1H-imida-zol-2-yl)-1-pyrroli-dinyl)carbon-yl)-2-methylpro-pyl)carba-mate], the pEC50 was 9.00 to 11.00.

Still in this test, the particulars now being: read-out: EC50 range against HCV 1b (Range).
For `COC(=O)N[C@H](C(=O)N1CCC[C@H]1c1ncc(-c2cnc(-c3ccc(-c4cnc([C@@H]5CCCN5C(=O)[C@@H](NC(=O)OC)C(C)C)[nH]4)c(F)c3)nc2)[nH]1)C(C)C` [Example D68, methyl ((1S)-1-(((2S)-2-(5-(2-fluoro-4-(5-(2-((2S)-1-((2S)-2-((methoxy-carbonyl)a-mino)-3-methyl-butanoyl)-2-pyrroli-dinyl)-1H-imida-zol-5-yl)-2-pyrimi-dinyl)phenyl)-1H-imida-zol-2-yl)-1-pyrroli-dinyl)carbo-nyl)-2-methylpro-pyl)carbamate], the pEC50 is 9.00 to 11.00.
